# Non-standard residues stand in square brackets, D forms with d. Residues, ends and D or L forms follow the SMILES beside them. Groups on a side chain read outwards from the residue. *: point of attachment. dPhe(4-Cl) = N[C@H](Cc1ccc(Cl)cc1)C(=O)O; NEt2 = CCN(CC)*
# How the values were obtained:
# [1] = tested on: Ishikawa human endometrium carcinoma cell line; assay: Inhibition of colony formation (dose-survival relation, Example 18); assay type: cell-based; conditions: 50 µM
# Protocol: (§1) In the case of cytostatics the cell-damaging effect is not cell-specific. […] One part of the arrested cells again go into the cycle, the other part may perish (apoptosis). […] The investigations were carried out on MCF-7 and MDA-MB-231 human mammary carcinoma cell lines, PC3 human prostate 15 carcinoma cell line and Ishikawa human endometrium carcinoma cell line. Three hundred cells were set into Petri dishes of 3.5 cm in diameter each. The treatment was carried out once, 24 hours following the explantation, then the colonies formed were counted after 9 to 12 days.
# [2] = tested on: PC3 human prostate carcinoma cell line; assay: as above; assay type: cell-based; conditions: 50 µM
# Protocol: as §1
# Ishikawa = conditions: 30 µM, peptide alone, two treatments on days 2 and 4
# Protocol: The procedure of treatment was as follows. After trypsinization the cells, 400,000 cells of MCF-7, MDA-MB-231 human mammary carcinoma, PC3 human prostate carcinoma or Ishikawa human endometrium tumour each were passed into Petri dishes of 10 cm in diameter. Starting from the day following transfer, the cells were treated with the substances to be tested in solution prepared with the nutrient medium during the exponential growth phase. The cultures were treated with 1 to 50 µM (calculated for the total volume of the culture) or MI-1544 GnRH antagonist, MI-1892 chicken GnRH antagonist or SJ-1004 GnRH […] on the 7th day.
# PC3 = assay: In vitro inhibition of cell proliferation (Example 19); assay type: cell-based, human; conditions: 30 µM, peptide alone, two treatments on days 2 and 4
# Protocol: The procedure of treatment was as follows. After trypsinization the cells, 400,000 cells of MCF-7, MDA-MB-231 human mammary carcinoma, PC3 human prostate carcinoma or Ishikawa human endometrium tumour each were passed into Petri dishes of 10 cm in diameter. Starting from the day following transfer, the cells were treated with the substances to be tested in solution prepared with the nutrient medium during the exponential growth phase. The cultures were treated with 1 to 50 µM (calculated for the total volume of the culture) or MI-1544 GnRH antagonist, MI-1892 chicken GnRH antagonist or SJ-1004 GnRH antagonist analogues as well as synthetic lamprey GnRH-III hormone every two days and the cell count was determined on the 7th day.
# MCF-7 xenograft = assay: In vivo antitumour effect on MCF-7 xenograft in immunosuppressed mice; set-up: species or system CBA/Ca mice; conditions: MCF-7 xenograft; for Tumour volume as control (%): MI-1892 2 x 25 µg
# Protocol: (§2) The immunosuppression of mice was carried out by using the method of Steel et al. [Br. J. Cancer, 37, 224-230 (1978)]. Immunosuppression and xeno-transplantation
# (§3) CBA-Ca female mice of about 6 weeks old were thymectomized and then, after one week, they were irradiated with 60Co (whole body irradiation; the lethal dose is 9.5 Gray). Within 24 hours 3 to 5 x 10^5 myelocytes were injected into the animals. Beneath the skin of the immunosuppressed mice 2 x 10^7 tumour cells or, in the case of later passages, […] were implanted. […] The treatment with steroid hormone was stopped by at least one week before beginning the investigation.
# In the case of MCF-7 tumours (xenografts) the examinations were carried out with passages being in the phase of the 37th and 38th, respectively, transplantations.
# In the case of mice bearing MCF-7 xenograft, the treatment was begun in the 4th week following xeno-transplantation.
# (§4) Recent investigations have begun on 28 animals bearing MCF-7 xenograft and on 28 animals bearing MDA-MB-231 xenograft. On animals bearing MCF-7 tumour the treatment was commenced in the 5th week following xeno-transplantation; the tumour volume was 205 to 225 mm^3. On animals bearing MDA-MB-231 tumour, the treatment was started in the 4th week after xeno-transplantation with a tumour volume of 140 to 150 mm^3. […] The control groups were daily treated with physiological saline s.c. (Each treated group consisting of 7 animals).
# MDA-MB-231 xenograft = assay: In vivo antitumour effect on MDA-MB-231 xenograft in immunosuppressed mice; set-up: species or system CBA/Ca mice; conditions: Table V
# Protocol: as §2, §3, §4
# A more recent study was started on 28 animals bearing MDA-MB-231 xenograft. The treatment was begun in the 4th or 5th week following xenotransplantation. The tumour volume was 0.165 to 0.194 cm^3. […] (For treatment of the control group, see the preceding Examples). Each group consisted of 7 animals.
# MXT mouse mammary tumour = assay: In vivo antitumour effect on mice bearing MXT mouse mammary tumour; set-up: species or system CBA/Ca mice
# Protocol: The MXT mouse mammary carcinoma contains ER and PgR proteins; furthermore, it contains also GnRH receptors; therefore, this in vivo tumour model is suitable for studying both the direct and indirect effects. The treatment of mice bearing MXT mammary tumour was commenced on the day following transplantation. […] Table VI The animals were daily treated in s.c. route starting from the day following transplantation of MXT mouse mammary tumour. […] MI-1544: 75 µg/day/animal; MI-1892: 75 µg/day/animal.
# humoral immune response = assay: Humoral immune response (antibody production of B-lymphocytes); assay type: in vivo; conditions: mice
# Source text: (§5) The immunosuppressive side effect of cytostatics used in tumour therapy is commonly known. This effect can be compensated to a certain grade by various immunostimulants (endotoxin, levamisole). Polypeptides with much […] molecular weights (about 40,000 to 80,000) are also capable of protecting against immunosuppressive effect [Gaál et al: J. Biol. Resp. Modif., 5, 148-159 (1986)]. The molecular weight of the novel polyanionic P-GFLG-OH macromolecule tested by us is about 10,000, that of MI-1892 is about 2000, i.e. relatively low; therefore, their immunostimulatory activity was unexpected.
# cellular immune response = assay: Cellular immune response (rosette formation against BRBC antigen); assay type: in vivo; conditions: mice; 100 µg/mouse
# Source text: as §5
# [3] = treatment week 4, MI-1892 2x25 µg daily s.c.
# [4] = treatment week 6, MI-1892 2x25 µg, conjugates 1x50 µg daily s.c.
# [5] = MXT mouse mammary tumour, Treatment weeks: 13, 1x75 µg daily s.c.
# [6] = MXT mouse mammary tumour, Treatment weeks: 20, 1x75 µg daily s.c.
smiles,measurement,setting,value
"CCN(CC)C(=O)[C@H](CC(=O)N[C@@H](CC(C)C)C(=O)N[C@@H](CCC(N)=O)C(=O)N1CCC[C@H]1C(=O)N[C@H](C)C(N)=O)NC(=O)[C@H](CCCCN)NC(=O)[C@H](CO)NC(=O)[C@@H](Cc1c[nH]c2ccccc12)NC(=O)[C@@H](Cc1ccc(Cl)cc1)NC(=O)[C@@H](Cc1c[nH]c2ccccc12)NC(C)=O [MI-1892, Ac-D-Trp^1,3,D-Cpa^2,Lys^5,[β-Asp(DEA)]^6,D-Ala^10-hGnRH, reference compound] (Ac-[dW][dPhe(4-Cl)][dW]SKD([Leu-Gln-Pro-dA-NH2])-NEt2)",% Inhibition of colony formation,[1],10%
same,% Inhibition of colony formation,[2],5%
same,inhibition of proliferation,Ishikawa,14%
same,inhibition of proliferation,PC3,33%
same,decrease in the tumour volume in comparison to controls,"MCF-7 xenograft; first study, end of 4th week, MI-1892 2 x 25 µg daily, conjugates 50 µg daily once",20%
same,Tumour volume as control (%),MCF-7 xenograft; treatment week 4,78.5%
same,Tumour volume as control (%),"MCF-7 xenograft; treatment week 6, conjugates 1 x 50 µg",79%
same,Inhibition %,MDA-MB-231 xenograft; [3],24.5%
same,Tumour volume as control (%),MDA-MB-231 xenograft; [3],75.5%
same,Inhibition %,MDA-MB-231 xenograft; [4],22%
same,Tumour volume as control (%),MDA-MB-231 xenograft; [4],78%
same,Inhibition %,MXT mouse mammary tumour; [5],51%
same,Tumour volume as control (%),MXT mouse mammary tumour; [5],49%
same,Inhibition %,MXT mouse mammary tumour; [6],39%
same,Tumour volume as control (%),MXT mouse mammary tumour; [6],61%
same,Tumour volume (cm^3),"MXT mouse mammary tumour; day 9, 75 µg/day/animal s.c.",0.61 cm^3
same,Tumour volume as control (%),"MXT mouse mammary tumour; day 9, 75 µg/day/animal s.c.",86%
same,Tumour volume (cm^3),"MXT mouse mammary tumour; day 11, 75 µg/day/animal s.c.",1.05 cm^3
same,Tumour volume as control (%),"MXT mouse mammary tumour; day 11, 75 µg/day/animal s.c.",58%
same,Tumour volume (cm^3),"MXT mouse mammary tumour; day 13, 75 µg/day/animal s.c.",1.59 cm^3
same,Tumour volume as control (%),"MXT mouse mammary tumour; day 13, 75 µg/day/animal s.c.",49%
same,Tumour volume (cm^3),"MXT mouse mammary tumour; day 17, 75 µg/day/animal s.c.",3.17 cm^3
same,Tumour volume as control (%),"MXT mouse mammary tumour; day 17, 75 µg/day/animal s.c.",62%
same,Tumour volume (cm^3),"MXT mouse mammary tumour; day 18, 75 µg/day/animal s.c.",4.8 cm^3
same,Tumour volume as control (%),"MXT mouse mammary tumour; day 18, 75 µg/day/animal s.c.",64%
same,Tumour volume (cm^3),"MXT mouse mammary tumour; day 20, 75 µg/day/animal s.c.",5.73 cm^3
same,Tumour volume as control (%),"MXT mouse mammary tumour; day 20, 75 µg/day/animal s.c.",61%
same,Tumour volume (cm^3),"MXT mouse mammary tumour; day 24, 75 µg/day/animal s.c.",6.32 cm^3
same,Tumour volume as control (%),"MXT mouse mammary tumour; day 24, 75 µg/day/animal s.c.",50%
same,Tumour volume (cm^3),"MXT mouse mammary tumour; day 26, 75 µg/day/animal s.c.",11.30 cm^3
same,Tumour volume as control (%),"MXT mouse mammary tumour; day 26, 75 µg/day/animal s.c.",82%
same,increase of the humoral immune response,humoral immune response; 50 µg/mouse,more than two-fold
same,increase of the humoral immune response,humoral immune response; 100 µg/mouse,three-fold
same,increase of the cellular immune response,cellular immune response,two-fold
